Measurements as given in PubChem BioAssay AID1259407 (Chemical Carcinogenesis Research Information System (CCRIS), 2018).
Calls of active or inactive are those of the source. No rule for the calls is given here.

Tested on: CCRIS mutagenicity, Ames/micronucleus/aberration tests
Experiment: CCRIS mutagenicity studies

Nc1ccc(-c2ccc(N)cc2)cc1
mutagenic call (Test System: AMES SALMONELLA TYPHIMURIUM, Strain/Indicator: TA100, Metabolic Activation: RAT, BLADDER, S-9, PCB, Method: FLUCTUATION TEST): active; positive | mutagenic call (Test System: AMES SALMONELLA TYPHIMURIUM, Strain/Indicator: TA100, Metabolic Activation: S-9, Method: STANDARD PLATE): inactive; negative | mutagenic call (Test System: AMES SALMONELLA TYPHIMURIUM, Strain/Indicator: TA100, Metabolic Activation: TOBACCO CELL-FREE TXIMX, Method: PREINCUBATION): inactive; negative | mutagenic call (Test System: AMES SALMONELLA TYPHIMURIUM, Strain/Indicator: TA1538, Metabolic Activation: GUINEA PIG, LIVER, INTACT HEPATOCYTES, Method: PREINCUBATION): active; positive | mutagenic call (Test System: AMES SALMONELLA TYPHIMURIUM, Strain/Indicator: TA1538, Metabolic Activation: GUINEA PIG, LIVER, S-9, ACETYL COENZYME A, Method: PREINCUBATION): active; positive | mutagenic call (Test System: AMES SALMONELLA TYPHIMURIUM, Strain/Indicator: TA1538, Metabolic Activation: GUINEA PIG, LIVER, S-9, Method: PREINCUBATION): active; positive | mutagenic call (Test System: AMES SALMONELLA TYPHIMURIUM, Strain/Indicator: TA1538, Metabolic Activation: HAMSTER, LIVER, INTACT HEPATOCYTES, Method: PREINCUBATION): active; positive | mutagenic call (Test System: AMES SALMONELLA TYPHIMURIUM, Strain/Indicator: TA1538, Metabolic Activation: HAMSTER, LIVER, S-9, ACETYL COENZYME A, Method: PREINCUBATION): active; positive | mutagenic call (Test System: AMES SALMONELLA TYPHIMURIUM, Strain/Indicator: TA1538, Metabolic Activation: HAMSTER, LIVER, S-9, Method: PREINCUBATION): active; positive | mutagenic call (Test System: AMES SALMONELLA TYPHIMURIUM, Strain/Indicator: TA1538, Metabolic Activation: HAMSTER, LIVER, S-9, Method: STANDARD PLATE): active; positive | mutagenic call (Test System: AMES SALMONELLA TYPHIMURIUM, Strain/Indicator: TA1538, Metabolic Activation: RAT, LIVER, INTACT HEPATOCYTES, Method: PREINCUBATION): active; positive | mutagenic call (Test System: AMES SALMONELLA TYPHIMURIUM, Strain/Indicator: TA1538, Metabolic Activation: RAT, LIVER, S-9, ACETYL COENZYME A, Method: PREINCUBATION): active; positive | mutagenic call (Test System: AMES SALMONELLA TYPHIMURIUM, Strain/Indicator: TA1538, Metabolic Activation: RAT, LIVER, S-9, AROCLOR 1254, Method: STANDARD PLATE): active; positive | mutagenic call (Test System: AMES SALMONELLA TYPHIMURIUM, Strain/Indicator: TA1538, Metabolic Activation: RAT, LIVER, S-9, PHENOBARBITAL, Method: STANDARD PLATE): active; positive | mutagenic call (Test System: AMES SALMONELLA TYPHIMURIUM, Strain/Indicator: TA1538, Metabolic Activation: RAT, LIVER, S-9, Method: PREINCUBATION): active; positive | mutagenic call (Test System: AMES SALMONELLA TYPHIMURIUM, Strain/Indicator: YG1021, Metabolic Activation: TOBACCO CELL-FREE TXIMX, Method: PREINCUBATION): active; positive | mutagenic call (Test System: AMES SALMONELLA TYPHIMURIUM, Strain/Indicator: YG1021, Metabolic Activation: TOBACCO TX1 CELLS, Method: PREINCUBATION): active; positive | mutagenic call (Test System: AMES SALMONELLA TYPHIMURIUM, Strain/Indicator: YG1024, Metabolic Activation: HUMAN, HEPATOMA CELLS, BENZO[A]ANTHRACENE, Method: PREINCUBATION): active; positive | mutagenic call (Test System: AMES SALMONELLA TYPHIMURIUM, Strain/Indicator: YG1024, Metabolic Activation: HUMAN, HEPATOMA CELLS, Method: PREINCUBATION): active; positive | mutagenic call (Test System: AMES SALMONELLA TYPHIMURIUM, Strain/Indicator: YG1024, Metabolic Activation: PLANT CELLS, Method: PREINCUBATION): active; positive | mutagenic call (Test System: AMES SALMONELLA TYPHIMURIUM, Strain/Indicator: YG1024, Metabolic Activation: RAT, LIVER, S-9, AROCLOR 1254, Method: PREINCUBATION): active; positive | mutagenic call (Test System: AMES SALMONELLA TYPHIMURIUM, Strain/Indicator: YG1024, Metabolic Activation: RAT, LIVER, S-9, Method: PREINCUBATION): active; positive | mutagenic call (Test System: AMES SALMONELLA TYPHIMURIUM, Strain/Indicator: YG1024, Metabolic Activation: TOBACCO CELL-FREE EXTRACT, Method: PREINCUBATION): active; positive | mutagenic call (Test System: AMES SALMONELLA TYPHIMURIUM, Strain/Indicator: YG1024, Metabolic Activation: TOBACCO CELL-FREE TXIMX, Method: PREINCUBATION): active; positive | mutagenic call (Test System: AMES SALMONELLA TYPHIMURIUM, Strain/Indicator: YG1024, Metabolic Activation: TOBACCO TX1 CELLS, Method: PREINCUBATION): active; positive | mutagenic call (Test System: AMES SALMONELLA TYPHIMURIUM, Strain/Indicator: YG1026, Metabolic Activation: TOBACCO CELL-FREE TXIMX, Method: PREINCUBATION): inactive; negative | mutagenic call (Test System: AMES SALMONELLA TYPHIMURIUM, Strain/Indicator: YG1026, Metabolic Activation: TOBACCO TX1 CELLS, Method: PREINCUBATION): inactive; negative | mutagenic call (Test System: AMES SALMONELLA TYPHIMURIUM, Strain/Indicator: YG1029, Metabolic Activation: TOBACCO CELL-FREE TXIMX, Method: PREINCUBATION): active; positive | mutagenic call (Test System: AMES SALMONELLA TYPHIMURIUM, Strain/Indicator: YG1029, Metabolic Activation: TOBACCO TX1 CELLS, Method: PREINCUBATION): active; positive | mutagenic call (Test System: Ames Salmonella typhimurium, Strain/Indicator: TA98, Metabolic Activation: Rat, Liver, S-9, Sodium phenobarbitone, Method: Preincubation): active; positive, test conducted under both aerobic and anaerobic conditions. | mutagenic call (Test System: Ames Salmonella typhimurium, Strain/Indicator: TA102, Metabolic Activation: None, Method: Preincubation): inactive; negative | mutagenic call (Test System: Ames Salmonella typhimurium, Strain/Indicator: TA102, Metabolic Activation: Rat, Liver, S-9, Aroclor 1254 in 0.154 M KCl, Method: Preincubation): active; positive (coumestrol, ellagic acid, (-) epicatechin, (-) epichatechingallate, ga | mutagenic call (Test System: Ames Salmonella typhimurium, Strain/Indicator: TA102, Metabolic Activation: Rat, liver, S-9, Aroclor 1254, 4%, Method: Preincubation): active; positive | mutagenic call (Test System: Ames Salmonella typhimurium, Strain/Indicator: TA1538, Metabolic Activation: Rat, Liver, S-9, Sodium phenobarbitone, Method: Preincubation): active; positive, test conducted under both aerobic and anaerobic conditions. | mutagenic call (Test System: CHINESE HAMSTER OVARY, Strain/Indicator: CHO-K1-BH4 (HGPRT)/6-THIOGUANINE, Metabolic Activation: RAT, LIVER, S-9, Method: SUSPENSION/PLATE): inactive; negative | mutagenic call (Test System: CHINESE HAMSTER OVARY, Strain/Indicator: CHO-K1-BH4 (HGPRT), Metabolic Activation: RAT, LIVER, S-9, AROCLOR, Method: SUSPENSION/PLATE): active; positive | mutagenic call (Test System: CHINESE HAMSTER V-79, Strain/Indicator: V-79/6-THIOGUANINE, Metabolic Activation: MOUSE, LIVER, S-9, Method: SUSPENSION/PLATE): active; positive | mutagenic call (Test System: CHINESE HAMSTER V-79, Strain/Indicator: V-79/6-THIOGUANINE, Metabolic Activation: NONE, Method: SUSPENSION/PLATE): inactive; negative | mutagenic call (Test System: CHINESE HAMSTER V-79, Strain/Indicator: V-79/6-THIOGUANINE, Metabolic Activation: RAT, LIVER, S-9, AROCLOR 1254, Method: SUSPENSION/PLATE): inactive; negative | mutagenic call (Test System: CHINESE HAMSTER V-79, Strain/Indicator: V-79/6-THIOGUANINE, Metabolic Activation: RAT, LIVER, S-9, PHENOBARBITAL AND BETA-NAPHTHOFLAVONE, Method: SUSPENSION/PLATE): inactive; negative | mutagenic call (Test System: MOUSE LYMPHOMA, Strain/Indicator: L5178Y (HGPRT)/6-THIOGUANINE, Metabolic Activation: NONE, Method: SUSPENSION/PLATE): inactive; negative | mutagenic call (Test System: MOUSE LYMPHOMA, Strain/Indicator: L5178Y (HGPRT)/6-THIOGUANINE, Metabolic Activation: RAT, LIVER, S-9, AROCLOR 1254, Method: SUSPENSION/PLATE): inactive; negative | mutagenic call (Test System: MOUSE LYMPHOMA, Strain/Indicator: L5178Y (HPRT), Metabolic Activation: NONE, Method: SUSPENSION/PLATE): inactive; negative | mutagenic call (Test System: MOUSE LYMPHOMA, Strain/Indicator: L5178Y (TK+/TK-)/TRIFLUOROTHYMIDINE, Metabolic Activation: NONE, Method: SUSPENSION/PLATE): active; positive | mutagenic call (Test System: MOUSE LYMPHOMA, Strain/Indicator: L5178Y (TK+/TK-)/TRIFLUOROTHYMIDINE, Metabolic Activation: RAT, LIVER, S-9, AROCLOR 1254, Method: SUSPENSION/PLATE): active; positive | mutagenic call (Test System: MOUSE LYMPHOMA, Strain/Indicator: L5178Y (TK+/TK-), Metabolic Activation: NONE, Method: SUSPENSION/PLATE): active; positive | mutagenic call (Test System: MOUSE LYMPHOMA, Strain/Indicator: L5178Y (TK+/TK-), Metabolic Activation: RAT, LIVER, S-9, AROCLOR 1254, Method: SUSPENSION/PLATE): active; positive | mutagenic call (Test System: MOUSE LYMPHOMA, Strain/Indicator: L5178Y (TK+/TK-), Metabolic Activation: S-9, Method: SUSPENSION/PLATE): active; positive | mutagenic call (Test System: UDS RODENT HEPATOCYTES, Strain/Indicator: THY INCORP (NON-S-PHASE), Method: AUTORADIOGRAPHY): active; positive
